Experimental data reported in patent US20260345507A1, “COMPOSITIONS AND METHODS FOR DELIVERY OF RNA” (REJUVENATION TECHNOLOGIES, INC., priority 2022, published 2026).

Experiments:
[1] = Pharmacokinetics of 5-lipid LNP (DOTAP by LC-MS/MS); format: in vivo, mouse; set-up: Decay constant: unit not given here; settings: 1.0 mg mRNA/kg; for half-life: mouse, 1 mg/kg
Method: Methods: LNPs were formulated using lipid molar ratios in Table 1 with mRNA encoding human telomerase. CD1 male mice were dosed at 1.0 mg mRNA/kg of body weight, and plasma and tissue were collected at time points 0 (<5 min) and 24 hours. DOTAP was measured using LC-MS/MS. mRNA was measured by qRT-PCR. “Liver Rest” is the liver sample excluding the left lobe.

P21 = experiment: Senescence marker P21 in lung alveolar cells of bleomycin-treated mice; format: in vivo, mouse; settings: following bleomycin treatment
Method: FIGS. 3-17 and FIGS. 20-21 depict experiments involving the use of a different 5 lipid LNP composition where lung fibrosis was induced in third generation (G3) TERT knock-out (KO) mice, which have telomere lengths that are similar to those of humans. Bleomycin was administered via oropharyngeal aspiration at 2.0 U/kg. For FIGS. 13-16, an initial dose of bleomycin was administered via oropharyngeal aspiration at 0.5 U/kg one week prior to the 2.0 U/kg dose. LNPs were formulated with firefly luciferase mRNA (Ctrl) or TERT mRNA (mouse SEQ ID NO: 2, including synthetic 5′ UTR (SEQ ID NO: 3), wt mTert coding sequence (SEQ ID NO: 4) and mouse alpha-globin 3′ UTR (SEQ ID NO: 5)) (referred to as “TERT mRNA LNP” herein or “TERT” or “TERT mRNA” in the figures) and the lipids in the ratios of Table 3. The DOTAP molar ratio is 2.27 times higher in the 5 lipid LNP of Table 3. Mice were dosed at 1.5 mg/kg twice a week for two weeks beginning on day 7 post bleomycin. Some mice received bleomycin, but not LNP treatment (No LNP), and control mice received saline instead of bleomycin and LNP treatment (No Bleo). Tissues were harvested on day 24 post bleomycin. Lungs were […]. […] Telomerase activity was measured in lung tissue lysate using the telomeric repeat amplification protocol (TRAP) assay. […]

[2] = Liver Left Lobe, dosed as 5-lipid LNP of Table 1, CD1 male mice
[3] = Liver Rest (liver excluding left lobe), 5-lipid LNP of Table 1, CD1 male mice
[4] = Lung Right Lobes, 5-lipid LNP of Table 1, CD1 male mice
[5] = Plasma, 5-lipid LNP of Table 1, CD1 male mice
[6] = Spleen, 5-lipid LNP of Table 1, CD1 male mice

Molecule	Decay constant [1, 2]	Decay constant [1, 3]	Decay constant ([1]; Lung Left Lobe, 5-lipid LNP of Table 1, CD1 male mice)	Decay constant [1, 4]	Decay constant [1, 5]	Decay constant [1, 6]	half-life [1, 2]	half-life [1, 3]	half-life [1, 4]	half-life [1, 5]	half-life [1, 6]	senescence (P21) (P21)
CCCCCCCC/C=C\CCCCCCCC(=O)OCC(C[N+](C)(C)C)OC(=O)CCCCCCC/C=C\CCCCCCCC (stereo not drawn) [DOTAP, 1,2-dioleoyl-3-trimethylammonium-propane]	0.066	0.050	0.094	0.073	0.191	0.136	10.5 h	13.8 h	9.51 h	3.63 h	5.09 h	
bleomycin												Increase in senescence
